{"source": "patent US20230218654A1", "about": "“COMPOSITIONS AND METHODS FOR TREATING HYPERGLYCEMIA IN TYPE-2 DIABETES” (The Board of Regents of the university of Oklahoma, priority 2020, published 2023)", "key": {"male C57BL6/J mice": {"tested_on": "male C57BL6/J mice", "assay": "Plasma/serum insulin and c-peptide after acute neddylation inhibitor treatment", "format": "in vivo", "description": "Male C57BL6/J mice on chow diet were treated with 45 mg/kg TAS4464 via subcutaneous injection at 9 am. Mice were then fasted for 6 hours and serum insulin was measured. Blood samples were collected at 0 min and 120 min and used for insulin measurement (n=4). Left-hand bars are controls. Right-hand bars are TAS4464 treatments.\nMale C57BL6/J mice on Western diet were treated with 15 mg/kg TAS4464 via subcutaneous injection at 9 am. Mice were then fasted for 6 hours and serum c-peptide were measured (n=5).\nMale C57BL6/J mice on chow diet were treated with 60 mg/kg MLN4924 via subcutaneous injection at 9 am. Mice were then fasted for 6 hours and serum c-peptide were measured (n=8)\nAspartate aminotransferase (AST) and alanine aminotransferase (ALT) assay kits were purchased from Pointe Scientific (Canton, MI). Free fatty acid assay kit was purchased from Biovision Inc. (Milpitas, CA). Insulin ELISA kit was purchased from Crystal Chem Inc. (Elk Grove Village, IL).\nA hyperinsulinemic-euglycemic clamp study was conducted in which obese mice were treated with vehicle or MLN4924."}, "AML12 mouse hepatocytes": {"tested_on": "AML12 mouse hepatocytes", "assay": "Western blot of insulin signaling and cullin neddylation in AML12 cells", "format": "cell-based", "description": "MLN4924 increases IRS protein and AKT activation in the presence of insulin. Mouse AML 12 hepatocytes were serum starved for 16 h. Cells were then pre-treated with MLN4924 for 1 h followed by 100 nM insulin stimulation for 4 h. Western blot was then performed to evaluate insulin signaling activation.\nAML 12 cells were serum starved for 16 h. Cells were then pre-treated with 500 nM MLN4924 or vehicle (DMSO) for 1 h, followed by 100 µg/ml cycloheximide (CHX) and 100 nM insulin treatment.\nAML12 cells were serum starved for 16 h. Cells were then pre-treated with 500 nM MLN4924 for 1 h followed by 100 nM insulin stimulation in time course.\nFIG. 18A is a Western blot analysis showing that MLN4924 enhances hepatocyte insulin responsiveness (signaling) by delaying feedback IRS degradation. AML12 cells were serum starved for 16 h. Cells were then pre-treated with MLN4924 for 1 h followed by insulin stimulation for 4 h.\nFIG. 18D is a Western blot analysis of insulin signaling in AML12 cells serum starved for 16 h, then pre-treated with 500 nM MLN4924 for 1 h followed by 100 nM insulin stimulation in time course.\nFIG. 18E is a Western blot analysis of AML12 cells serum starved for 16 h then pre-treated with 500 nM MLN4924 or vehicle (DMSO) for 1 h, followed by 100 µg/ml cycloheximide (CHX) and 100 nM insulin treatment. Cells were collected at the indicated time for Western blotting.\nFIG. 18F is a Western blot analysis of insulin signaling in AML12 cells serum starved for 16 h then pre-treated with 100 nM rapamycin and 500 nM MLN4924 as indicated for 1 h followed by additional 2 h incubation in the presence or absence of 100 nM insulin. Blots are representative of 2-4 independent experiments.\n(§1) FIG. 20 is a Western blot analysis showing that MLN4924 enhances hepatocyte insulin responsiveness in cells treated with wortmannin by delaying feedback IRS degradation (related to FIG. 18A). AML12 cells were serum starved for 16 h then pre-treated with 1 µM wortmannin (Wort) and 500 nM MLN4924 as indicated for 1 h followed by additional 2 h incubation in the presence or absence of 100 nM insulin. Blots are representative of 2 independent experiments.\nas §1, with “21” for “20”, “Torin 1” for “wortmannin”, “250 nM Torin1” for “1 µM wortmannin (Wort)”\nMLN4924 and TAS4464 were purchased from MedChemExpress (MCE, Monmouth Junction, NJ). For cell treatment, MLN4924 and TAS4464 were dissolved in DMSO. Cells were serum starved overnight and then treated with MLN4924, TAS4464 and/or insulin as indicated. For injection in mice, MLN4924 and TAS4464 were first dissolved in DMSO, which was further suspended in 10% (2-hydroxypropyl)-β-cyclodextrin (Sigma, St. Louis, MO). The final solution contains 1% DMSO. The subcutaneous injection volume is 200 µl/mouse.\nProtein lysates were prepared in RIPA buffer containing 1% SDS and protease inhibitors on ice for 1 h followed by brief sonication. After centrifugation, supernatant was used for SDS-PAGE and immunoblotting.\nAML12 cells were a generous gift from Dr. Yanqiao Zhang (Northeast Ohio Medical University). AML12 cells were cultured in DMEM medium supplemented with a mixture of insulin-transferrin-selenium (#41400-045, ThermoFisher, Waltham, MA). For experiments, cells were cultured in serum free medium overnight before various treatments were initiated. The siGENOME SMARTpool siRNA and siControl were purchased from Dharmacon, Inc. (Lafayette, CO). The siRNA was transfected with Lipofectamine RNAiMAX reagent in a final concentration of 25 nM recommended by the manufacturer. […]"}, "male C57BL/6J mice": {"tested_on": "male C57BL/6J mice", "assay": "Glucose tolerance test (GTT)", "format": "in vivo", "settings": "60 mg/kg SQ twice; for glucose tolerance in GTT: 6 h fast", "description": "On the day of testing, mice were fasted for 6 h (from 9 am to 3 pm). Mice were then given 2 g/kg D-glucose via IP injection. Blood glucose was measured with an UltraTouch glucometer in time course over a 120-minute period.\nMice were treated with 2 doses of MLN4924 as described. After the second injection at 9 am, mice were fasted for 6 h from 9 am to 3 pm. Mice were injected intraperitoneally […] for PTT, and 0.5 U/kg insulin for ITT. Blood glucose was measured with a OneTouch Ultra glucose meter."}, "[1]": {"settings": "insulin stimulated, MLN4924 pre-treatment 1 h, insulin 4 h"}}, "note": "Entries after “also recorded” stand apart in the source; their conditions may differ."}
{"smiles": "NS(=O)(=O)OC[C@@H]1C[C@@H](n2ccc3c(N[C@H]4CCc5ccccc54)ncnc32)C[C@@H]1O", "note": "[MLN4924, ((1S,2S,4R)-4-(4-((1S)-2,3-dihydro-1H-inden-1-ylamino)-7H-pyrrolo[2,3-d]pyrimidin-7-yl)-2-hydroxycyclopentyl) methyl sulfamate]", "values": [{"measurement": "plasma insulin", "setting": "male C57BL6/J mice; acute MLN4924 treatment", "result": "~ 0.55 ng/ml"}, {"measurement": "serum c-peptide", "setting": "male C57BL6/J mice; acute MLN4924 treatment", "result": "~ 1.1 ng/ml"}, {"measurement": "serum c-peptide concentration", "setting": "male C57BL6/J mice; chow diet, 60 mg/kg SQ at 9 am, 6 h fast", "result": "elevated serum c-peptide concentration"}, {"measurement": "IRS protein in the presence of rapamycin", "setting": "AML12 mouse hepatocytes; 500 nM MLN4924 + 100 nM rapamycin, 100 nM insulin", "result": "did not further increase IRS protein"}, {"measurement": "IRS1 S307 phosphorylation", "setting": "AML12 mouse hepatocytes; 500 nM, 100 nM insulin time course", "result": "also higher"}, {"measurement": "insulin signaling desensitization (IRS1(Y612), AKT(S473))", "setting": "AML12 mouse hepatocytes; 500 nM, 1 h, then 100 nM insulin in time course", "result": "significantly delayed cellular insulin desensitization; also recorded: significantly delayed insulin signaling desensitization"}, {"measurement": "insulin-induced IRS degradation", "setting": "AML12 mouse hepatocytes; 500 nM, 100 µg/ml cycloheximide (CHX) and 100 nM insulin", "result": "significantly delayed"}, {"measurement": "further MLN4924-mediated IRS enrichment and insulin sensitization", "setting": "AML12 mouse hepatocytes; Cul1 or Cul3 knockdown cells, 500 nM", "result": "limited but not fully abolished"}, {"measurement": "AKT S473 phosphorylation", "setting": "AML12 mouse hepatocytes; [1]", "result": "increased AKT S473 phosphorylation"}, {"measurement": "IR (Y1150) phosphorylation", "setting": "AML12 mouse hepatocytes; [1]", "result": "but not IR (Y1150) phosphorylation"}, {"measurement": "IRS1(Y612) phosphorylation", "setting": "AML12 mouse hepatocytes; [1]", "result": "enhanced IRS1(Y612) phosphorylation"}, {"measurement": "total IRS1 and IRS2 protein", "setting": "AML12 mouse hepatocytes; [1]", "result": "dose-dependently increased total IRS1 and IRS2 protein"}, {"measurement": "further IRS protein stabilization caused by MLN4924", "setting": "AML12 mouse hepatocytes; simultaneous knockdown of Cul1 and Cul3, 500 nM", "result": "largely abolished"}, {"measurement": "peak blood glucose at 30 minutes post glucose challenge", "setting": "male C57BL/6J mice; vs vehicle", "result": "significantly lower"}, {"measurement": "glucose tolerance in GTT", "setting": "male C57BL/6J mice; 3-week WD-fed mice", "result": "significantly improved glucose tolerance"}, {"measurement": "basal glucose levels after 6 h fasting", "setting": "male C57BL/6J mice; chow condition", "result": "did not significantly decrease basal glucose levels"}, {"measurement": "glucose tolerance in GTT", "setting": "male C57BL/6J mice; chow-fed mice, 60 mg/kg", "result": "significantly improved glucose tolerance; also recorded: improved overall glucose tolerance"}]}
